The assay deals with mice exposed to L-TBI. Description: Mouse survival after lethal total body irradiation (L-TBI, 840cGy). Format: in vivo. Particulars: MDV3100 24 h after L-TBI, alone. From the text:
Description. Inhibition of sex steroids, which can be achieved in a reversible fashion pharmacologically, is a well-described strategy to promote lymphopoiesis in the BM and thymus^8,7,14,15. Although the most common method of sex steroid ablation clinically has been to use LHRH-agonists, it was described that an LHRH-Antagonist represents a more rational approach to promote immediate ablation of sex steroids for immune regeneration as it is far more rapid and abrogates the initial surge in sex steroids that LHRH-Agonist cause^16. Taken together with the impact of sex steroid inhibition on HSC function and the rapid regenerative effects of LHRH-Ant, it was hypothesized that LHRH-Ant could represent a rational non-cellular medical countermeasure for mitigating radiation injury and promoting hematopoietic regeneration when administered after hematopoietic insult. […] It was then tested if LHRH-Ant could mediate even greater mouse survival when administered multiple times.
Methods. […] B6.SJL-Ptprca Pepcb/BoyJ (CD45.1) male mice (The Jackson Laboratory) were used between 7 and 12 weeks of age for transplant. Mice were irradiated with a Gammacell 40 Irradiator (Cs-137), with an average dose rate of 95 cGy/min, in a plexiglass mouse pie cage. To assess mouse survival after radiation, mice were monitored for up to 60 days after TBI. To adjust for differences in weight, identical mice were purchased from Jackson and cages randomly distributed over different groups. All animal protocols were approved by the Memorial Sloan Kettering Cancer Center Institutional Animal Care and Use Committee.
Reagents: Degarelix (as acetate), a LHRH-Ant (Firmagon), was resuspended in sterile water for injection and administered S.C. to mice at a dose of 40 mg/kg. To evaluate the radiomitigative effect of LHRH-Ant on survival, mice were treated subcutaneously (S.C.) with a single injection of the LHRH-Ant or a saline control solution (PBS). Degarelix was purchased from the Memorial Sloan-Kettering Cancer Center Pharmacy. […] MDV3100 (selleckchem) was resuspended in a mixture of 45% PBS, 45% PEG and 10% DMSO and administered daily to mice by oral gavage at a dose of 10 mg/kg. 5-FU (InvivoGen) was administered to mice intraperitoneally (I.P.) at a dose of 150 mg/kg once every 7 days consecutively for 3 times as previously described^34,47,49.

`CNC(=O)c1ccc(N2C(=S)N(c3ccc(C#N)c(C(F)(F)F)c3)C(=O)C2(C)C)cc1F` [MDV3100, enzalutamide]: the “survival after L-TBI” value is given as “did not mediate any survival benefit”.

Source of the values: patent US12295973B2 (Fred Hutchinson Cancer Center, priority 2017, dated 2025).
